Earlier results as cited in patent publication US8226980B2, “Orally disintegrating solid dosage forms comprising progestin and methods of making and using thereof” (Teva Women's Health, Inc., priority 2006, dated 2012).
Where two headings read alike, the source gives them in different places.

Settings: for Dose roughly equivalent to 0.050 mg of levonorgestrel: in a contraceptive regimen

Structure (SMILES): C#C[C@]1(OC(C)=O)CC[C@H]2[C@@H]3CCC4=CC(=O)CC[C@@H]4[C@H]3CC[C@@]21C [Norethindrone acetate]
- Dose roughly equivalent to 0.050 mg of levonorgestrel: about 0.175 mg
- Norethindrone Equivalent* Dose (progestin Dose 0.40 mg): 0.40 mg
- Norethindrone Equivalent* Dose (progestin Dose 0.50 mg): 0.50 mg
- Norethindrone Equivalent* Dose (progestin Dose 0.60 mg): 0.60 mg
- Norethindrone Equivalent* Dose (progestin Dose 1.00 mg): 1.00 mg
- Norethindrone Equivalent* Dose (progestin Dose 1.50 mg): 1.50 mg
- Norethindrone Equivalent* Dose (progestin Dose 2.50 mg): 2.50 mg

Structure (SMILES): C#C[C@]1(O)CC[C@H]2[C@@H]3CCC4=C(CCC(=O)C4)[C@H]3CC[C@@]21C [Norethynodrel]
- Norethindrone Equivalent* Dose (progestin Dose 2.50 mg): 2.50 mg
- Norethindrone Equivalent* Dose (progestin Dose 5.00 mg): 5.00 mg
- Norethindrone Equivalent* Dose (progestin Dose 9.85 mg): 9.85 mg

Structure (SMILES): C#C[C@]1(O)C=C[C@H]2[C@@H]3CCC4=CC(=O)CC[C@@H]4[C@H]3CC[C@@]21CC [gestodene]
- Dose roughly equivalent to 0.050 mg of levonorgestrel: about 0.035 mg

Structure (SMILES): C#C[C@]1(O)CC[C@H]2[C@@H]3CCC4=CCCC[C@@H]4[C@H]3C(=C)C[C@@]21CC [desogestrel]
- Dose roughly equivalent to 0.050 mg of levonorgestrel: about 0.050 mg

Structure (SMILES): C#CC1(O)CC[C@H]2[C@@H]3CCC4=CC(=O)CC[C@@H]4[C@H]3CC[C@@]21CC (mixture of isomers) [dl-Norgestrel]
- Dose roughly equivalent to 0.050 mg of levonorgestrel: about 0.100 mg
- Norethindrone Equivalent* Dose (progestin Dose 0.30 mg): 0.45 mg
- Norethindrone Equivalent* Dose (progestin Dose 0.50 mg): 0.75 mg

Structure (SMILES): C#C[C@]1(O)CC[C@H]2[C@@H]3CCC4=CC(=O)CC[C@@H]4[C@H]3C(=C)C[C@@]21CC [3-ketodesogestrel]
- Dose roughly equivalent to 0.050 mg of levonorgestrel: about 0.050 mg

Structure (SMILES): C#C[C@]1(O)CC[C@H]2[C@@H]3CCC4=CC(=O)CC[C@@H]4[C@H]3CC[C@@]21C [Norethindrone]
- Norethindrone Equivalent* Dose (progestin Dose 1.00 mg): 1.00 mg
- Norethindrone Equivalent* Dose (progestin Dose 2.00 mg): 2.00 mg
- Norethindrone Equivalent* Dose (progestin Dose 10.00 mg): 10.00 mg

Structure (SMILES): C#C[C@]1(O)CCC2C3CCC4=CC(=O)CCC4C3CCC21CC (stereo partly drawn) [Levonorgestrel, 18,19-Dinorpregn-4-en-20-yn-3-one-13-ethyl-17-hydroxy-, (17α)-(−)-]
- Norethindrone Equivalent* Dose (progestin Dose 0.10 mg): 0.35 mg
- Norethindrone Equivalent* Dose (progestin Dose 0.15 mg): 0.52 mg

Structure (SMILES): C#C[C@]1(OC(C)=O)CC[C@H]2[C@@H]3CCC4=C[C@@H](OC(C)=O)CC[C@@H]4[C@H]3CC[C@@]21C [Ethynodiol diacetate]
- Norethindrone Equivalent* Dose (progestin Dose 1.00 mg): 1.00 mg
